SMILES strings stand for the structures. pIC50: −log10 of the molar value.

In test [1] the target is T1, Insulin-like growth factor 1 receptor (Homo sapiens, UniProt P08069).
In test [2] the target is T1, Insulin-like growth factor 1 receptor. In words: Inhibition of IGF1R in human MCF7 cells by Western blot analysis. The format is cell-based.
A short description of test [3]: Selectivity for HER2 over EGFR.
Test [4] deals with T1, Insulin-like growth factor 1 receptor. The test is described as follows: Inhibition of IGF1R autophosphorylation in human MCF7 cells by Western blot analysis. It counts as cell-based. (In general: A western blot detects proteins with antibodies after separation by electrophoresis.)
The target is the same in test [5]. The test is described as follows: Inhibition of IGF1R in growth factor-stimulated NHDF.
Test [6] shares this target. In words: Inhibition for IGF1R-induced S6 ribosomal protein phosphorylation in growth factor-stimulated NHDF.
For test [7] the target is unchanged. The test is described as follows: Displacement of fluorescent ATP competitive ligand from IGF1R.
Test [8] has as its target T2, Insulin receptor (Homo sapiens, UniProt P06213). The test is described as follows: Inhibition of IRK.
Test [9] has as its target T1, Insulin-like growth factor 1 receptor. This is another data set of the same source.
Description: Inhibition of IGF1R by cell based assay
A further test has as its system COLO 205. The test is described as follows: Cytotoxicity against human COLO205 cells. It counts as functional, cell-based.
For a further test, the target named is Focal adhesion kinase 1 (Homo sapiens, UniProt Q05397).
Test [10] in a line: Cytotoxicity against human RD1 cells. The format is functional, cell-based.
Test [11] addresses Tyrosine-protein kinase Lck (Homo sapiens, UniProt P06239).
Test [12] in a line: Cytotoxicity against human MDA PCa 2b cells. The format is functional, cell-based.
The subject of a further test is MCF7. In words: Cytotoxicity against human MCF7 cells. The format is functional, cell-based.
Test [13] addresses Epidermal growth factor receptor (Homo sapiens, UniProt P00533). In words: Inhibition of HER1.
In test [14] the target is Mast/stem cell growth factor receptor Kit (Homo sapiens, UniProt P10721).
In the next test the target is Bcr/Abl fusion protein (Homo sapiens, UniProt P00519). In words: Inhibition of BCR-ABL p210. It counts as protein assay.
A short description of test [15]: Selectivity for EGFR over HER2.
Test [16] deals with T1, Insulin-like growth factor 1 receptor. The source holds these as a separate data set.
Description: Inhibition of IGF1R by cell based assay
Test [17] has as its target T2, Insulin receptor.
Description: Inhibition of insulin receptor by cell based assay
Test [18] addresses Vascular endothelial growth factor receptor 2 (Homo sapiens, UniProt P35968). The test is described as follows: Inhibition of VEGFR2.
For test [19], the target named is Receptor tyrosine-protein kinase erbB-2 (Homo sapiens, UniProt P04626). The test is described as follows: Inhibition of HER2.
Test [20] in a line: Inhibition of PDGFR.
Test [21] can be described thus: Selectivity for insulin receptor over IGF1R.
Test [22] concerns the target T1, Insulin-like growth factor 1 receptor. In words: Inhibition of GST-tagged human IGF1R expressed in baculovirus-infected Sf21 cells by scintillation proximity assay. (In a scintillation proximity assay essentially only radioactivity close to the scintillant gives light.)
Test [23] shares this target. In words: Inhibition of IGF1R in IGF1-stimulated human MCF7 cells by Western blot analysis. The format is cell-based.

T2 sequence (P06213 28-758 limits assumed): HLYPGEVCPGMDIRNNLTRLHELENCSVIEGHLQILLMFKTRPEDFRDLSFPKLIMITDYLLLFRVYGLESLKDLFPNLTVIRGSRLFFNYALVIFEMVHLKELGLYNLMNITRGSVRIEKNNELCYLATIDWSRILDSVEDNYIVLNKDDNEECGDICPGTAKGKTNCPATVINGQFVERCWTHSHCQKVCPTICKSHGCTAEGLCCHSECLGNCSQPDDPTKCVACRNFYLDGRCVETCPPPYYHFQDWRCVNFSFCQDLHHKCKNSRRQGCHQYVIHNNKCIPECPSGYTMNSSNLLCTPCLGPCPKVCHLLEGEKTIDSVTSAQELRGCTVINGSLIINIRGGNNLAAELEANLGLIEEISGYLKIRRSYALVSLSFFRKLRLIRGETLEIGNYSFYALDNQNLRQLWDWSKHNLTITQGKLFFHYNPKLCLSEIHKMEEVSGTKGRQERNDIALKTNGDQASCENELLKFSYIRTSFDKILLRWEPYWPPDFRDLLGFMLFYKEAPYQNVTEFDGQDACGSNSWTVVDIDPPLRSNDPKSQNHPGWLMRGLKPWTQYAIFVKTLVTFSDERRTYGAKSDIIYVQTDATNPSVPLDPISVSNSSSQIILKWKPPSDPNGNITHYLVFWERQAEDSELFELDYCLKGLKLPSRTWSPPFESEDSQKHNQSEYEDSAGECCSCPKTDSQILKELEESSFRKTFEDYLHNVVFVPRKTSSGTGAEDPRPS
T2 sequence (P06213 763-1382 limits assumed): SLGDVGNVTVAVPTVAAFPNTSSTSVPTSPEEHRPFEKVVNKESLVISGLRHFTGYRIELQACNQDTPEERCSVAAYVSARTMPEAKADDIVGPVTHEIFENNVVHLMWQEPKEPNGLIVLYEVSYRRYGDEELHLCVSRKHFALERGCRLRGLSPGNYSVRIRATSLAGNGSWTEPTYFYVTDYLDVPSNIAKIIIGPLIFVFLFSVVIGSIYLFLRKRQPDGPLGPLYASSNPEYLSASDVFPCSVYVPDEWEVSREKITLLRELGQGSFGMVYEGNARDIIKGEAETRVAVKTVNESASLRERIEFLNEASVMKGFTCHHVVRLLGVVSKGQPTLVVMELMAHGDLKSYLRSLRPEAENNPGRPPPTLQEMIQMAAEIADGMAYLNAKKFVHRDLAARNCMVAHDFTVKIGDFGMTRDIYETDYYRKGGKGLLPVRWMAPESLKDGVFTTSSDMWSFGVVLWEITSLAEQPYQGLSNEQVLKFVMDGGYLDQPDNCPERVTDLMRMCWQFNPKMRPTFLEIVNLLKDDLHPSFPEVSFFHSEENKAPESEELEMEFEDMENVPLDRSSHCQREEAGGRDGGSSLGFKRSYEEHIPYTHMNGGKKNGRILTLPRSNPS
T1 sequence (P08069 31-736 limits assumed): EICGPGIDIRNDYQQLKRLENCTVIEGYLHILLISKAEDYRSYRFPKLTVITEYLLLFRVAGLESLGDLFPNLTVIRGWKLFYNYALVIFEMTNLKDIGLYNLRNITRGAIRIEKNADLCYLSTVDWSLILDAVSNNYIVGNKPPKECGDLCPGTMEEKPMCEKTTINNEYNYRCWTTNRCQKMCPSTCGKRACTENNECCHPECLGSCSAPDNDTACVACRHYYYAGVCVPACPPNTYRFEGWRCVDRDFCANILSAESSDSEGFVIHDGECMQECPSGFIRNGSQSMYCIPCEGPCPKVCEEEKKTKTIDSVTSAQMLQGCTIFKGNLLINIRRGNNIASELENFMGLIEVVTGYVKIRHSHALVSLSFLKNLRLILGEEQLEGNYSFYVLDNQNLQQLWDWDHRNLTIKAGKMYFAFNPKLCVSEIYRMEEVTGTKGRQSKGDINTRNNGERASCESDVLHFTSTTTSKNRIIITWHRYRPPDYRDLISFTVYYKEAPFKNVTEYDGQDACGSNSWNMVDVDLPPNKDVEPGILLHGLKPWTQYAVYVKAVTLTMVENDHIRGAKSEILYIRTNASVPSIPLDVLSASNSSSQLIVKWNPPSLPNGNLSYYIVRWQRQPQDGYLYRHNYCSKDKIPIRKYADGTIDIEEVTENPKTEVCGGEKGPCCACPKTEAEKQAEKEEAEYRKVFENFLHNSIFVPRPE
T1 sequence (P08069 741-1367 limits assumed): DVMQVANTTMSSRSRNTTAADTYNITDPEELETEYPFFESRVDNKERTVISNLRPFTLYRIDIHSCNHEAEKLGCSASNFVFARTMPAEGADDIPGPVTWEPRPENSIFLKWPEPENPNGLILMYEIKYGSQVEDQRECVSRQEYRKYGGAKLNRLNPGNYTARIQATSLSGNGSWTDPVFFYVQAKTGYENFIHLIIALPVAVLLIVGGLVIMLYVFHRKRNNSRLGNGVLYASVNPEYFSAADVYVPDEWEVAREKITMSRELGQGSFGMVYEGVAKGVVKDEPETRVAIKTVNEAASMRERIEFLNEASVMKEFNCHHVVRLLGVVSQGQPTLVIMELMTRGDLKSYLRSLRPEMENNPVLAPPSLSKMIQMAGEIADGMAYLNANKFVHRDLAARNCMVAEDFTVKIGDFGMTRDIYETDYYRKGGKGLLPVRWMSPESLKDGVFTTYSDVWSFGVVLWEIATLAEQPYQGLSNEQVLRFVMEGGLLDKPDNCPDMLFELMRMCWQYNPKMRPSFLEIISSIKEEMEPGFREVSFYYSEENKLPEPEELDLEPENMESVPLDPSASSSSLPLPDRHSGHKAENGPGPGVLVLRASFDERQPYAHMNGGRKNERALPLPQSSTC
Chain of Bcr/Abl fusion protein (P00519 whole entry, the tested form may be a part): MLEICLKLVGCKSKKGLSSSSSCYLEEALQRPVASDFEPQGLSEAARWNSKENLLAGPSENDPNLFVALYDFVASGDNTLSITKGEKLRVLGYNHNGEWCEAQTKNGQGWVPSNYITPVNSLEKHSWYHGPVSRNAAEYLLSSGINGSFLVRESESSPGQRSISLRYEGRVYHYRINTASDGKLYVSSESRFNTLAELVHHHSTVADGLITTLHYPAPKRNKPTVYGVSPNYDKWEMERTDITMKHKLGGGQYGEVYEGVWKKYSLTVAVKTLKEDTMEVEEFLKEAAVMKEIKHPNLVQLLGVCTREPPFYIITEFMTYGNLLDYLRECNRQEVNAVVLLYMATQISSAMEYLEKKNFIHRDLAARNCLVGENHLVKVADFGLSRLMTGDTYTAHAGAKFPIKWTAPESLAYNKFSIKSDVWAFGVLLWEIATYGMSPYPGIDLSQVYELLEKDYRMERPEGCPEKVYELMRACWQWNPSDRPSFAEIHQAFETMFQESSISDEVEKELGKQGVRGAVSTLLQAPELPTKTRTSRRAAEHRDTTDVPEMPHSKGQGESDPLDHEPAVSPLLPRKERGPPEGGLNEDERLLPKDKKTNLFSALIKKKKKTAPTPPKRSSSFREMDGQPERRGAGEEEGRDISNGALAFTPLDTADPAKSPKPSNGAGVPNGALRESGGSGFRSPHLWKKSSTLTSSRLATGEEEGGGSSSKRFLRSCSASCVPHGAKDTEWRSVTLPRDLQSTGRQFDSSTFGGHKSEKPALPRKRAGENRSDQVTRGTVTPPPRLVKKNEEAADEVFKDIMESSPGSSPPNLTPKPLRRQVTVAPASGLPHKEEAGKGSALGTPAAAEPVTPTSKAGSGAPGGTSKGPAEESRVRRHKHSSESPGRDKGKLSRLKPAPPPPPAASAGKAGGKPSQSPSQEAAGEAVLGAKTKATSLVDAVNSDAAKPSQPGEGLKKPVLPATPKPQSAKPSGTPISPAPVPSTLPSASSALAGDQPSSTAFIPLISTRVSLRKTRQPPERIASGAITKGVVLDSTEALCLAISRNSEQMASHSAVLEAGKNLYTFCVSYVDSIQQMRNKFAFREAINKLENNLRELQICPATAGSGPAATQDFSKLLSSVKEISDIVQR
Chain of Bcr/Abl fusion protein (P11274 whole entry, further chain, the tested form may be a part): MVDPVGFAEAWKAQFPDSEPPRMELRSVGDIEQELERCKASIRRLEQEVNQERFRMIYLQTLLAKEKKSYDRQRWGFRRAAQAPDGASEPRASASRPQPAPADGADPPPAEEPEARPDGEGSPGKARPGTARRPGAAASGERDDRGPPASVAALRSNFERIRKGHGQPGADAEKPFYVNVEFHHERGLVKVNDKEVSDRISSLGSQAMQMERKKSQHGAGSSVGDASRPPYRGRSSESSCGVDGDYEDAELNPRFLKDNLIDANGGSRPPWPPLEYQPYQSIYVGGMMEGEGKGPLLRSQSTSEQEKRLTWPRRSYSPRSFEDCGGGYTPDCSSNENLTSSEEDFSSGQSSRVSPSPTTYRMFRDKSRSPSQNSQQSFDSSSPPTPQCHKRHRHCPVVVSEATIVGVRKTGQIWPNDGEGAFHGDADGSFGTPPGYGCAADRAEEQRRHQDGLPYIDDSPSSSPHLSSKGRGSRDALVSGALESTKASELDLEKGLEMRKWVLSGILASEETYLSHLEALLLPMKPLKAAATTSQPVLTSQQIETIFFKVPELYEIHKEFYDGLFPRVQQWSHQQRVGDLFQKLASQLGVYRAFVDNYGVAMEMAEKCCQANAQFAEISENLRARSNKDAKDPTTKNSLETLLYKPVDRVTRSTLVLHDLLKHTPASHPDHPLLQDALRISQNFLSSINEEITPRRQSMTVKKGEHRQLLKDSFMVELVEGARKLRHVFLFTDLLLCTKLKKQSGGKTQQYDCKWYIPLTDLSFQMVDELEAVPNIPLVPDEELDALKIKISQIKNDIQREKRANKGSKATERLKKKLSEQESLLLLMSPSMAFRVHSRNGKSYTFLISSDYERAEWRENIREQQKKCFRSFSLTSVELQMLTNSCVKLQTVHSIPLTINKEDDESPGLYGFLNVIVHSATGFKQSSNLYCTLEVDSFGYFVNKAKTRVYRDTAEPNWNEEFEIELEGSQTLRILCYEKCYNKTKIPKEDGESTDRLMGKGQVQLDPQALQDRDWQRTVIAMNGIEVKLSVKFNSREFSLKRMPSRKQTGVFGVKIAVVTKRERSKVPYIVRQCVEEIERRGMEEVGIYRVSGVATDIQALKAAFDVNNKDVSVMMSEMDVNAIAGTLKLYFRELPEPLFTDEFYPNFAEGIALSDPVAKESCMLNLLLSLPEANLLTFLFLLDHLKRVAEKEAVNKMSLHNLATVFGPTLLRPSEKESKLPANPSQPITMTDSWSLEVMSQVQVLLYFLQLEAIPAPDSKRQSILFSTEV

In test [1], `Cc1cc(N2CCOCC2)cc2[nH]c(-c3c(NC[C@H](O)c4ccccc4Cl)cc[nH]c3=O)nc12` showed a negative-log IC50 (pIC50) of 6.08.

The compound `CN1CCN(c2ccc(C(=O)Nc3n[nH]c4c3CN(S(=O)(=O)c3cc(F)cc(F)c3)CC4)c(NC(=O)c3ccc[nH]3)c2)CC1` had a negative logarithm of the IC50 (pIC50) in [2] of 7.10.

As for `O=C(O[C@@H]1Cc2ccccc2O[C@@H]1c1cc(O)c(O)c(O)c1)c1cc(O)c(O)c(O)c1`, the negative logarithm of the IC50 (pIC50) in test [1] was 4.85.

As for `CC(C)(C)c1cc(/C=C(\C#N)C(N)=S)cc(C(C)(C)C)c1O`, the Selectivity ratio in test [3] was found to be 1000.

For the compound `COc1ccc(Cl)cc1NC(=O)Nc1cc(C)nc2ccccc12`, in test [4], the negative-log IC50 (pIC50) is > 6.00.

Take `CN1CCN(c2ccc(C(=O)Nc3n[nH]c4c3CN(S(=O)(=O)c3cc(F)cc(F)c3)CC4)cc2)CC1`: the pIC50 is 6.47 in test [5] and 5.52 in test [6].

Take `CCOC(=O)c1[nH]c(C=O)c(C(=O)OCC)c1C`: the Activity in test [7] is 2.7 µM; at Insulin receptor [8] it was 12 µM; in [9], 15 µM.

`Cc1cc(N2CCN(CCC#N)CC2)cc2nc(-c3c(NC[C@@H](O)c4ccccc4Cl)cc[nH]c3=O)[nH]c12`: the negative-log IC50 (pIC50) was 6.92 with COLO 205; 7.03 on Focal adhesion kinase 1; 6.84 in test [10]; < 5.82 in test [11]; 6.73 in [12]; 6.63 with MCF7.

Take `CCOC(=O)c1c(C=O)[nH]c(C(=O)OC(C)(C)C)c1CC`: the Activity in test [7] was 0.49 µM; at Insulin receptor [8], 2 µM; in [9] it was 5.3 µM.

With `Nc1ncnc2c1c(-c1cccc(OCc3ccccc3)c1)cn2[C@H]1C[C@@H](CN2CCC2)C1` [AEW-541], the pIC50 in test [13] is < 5.00; in [14], < 5.30; on Bcr/Abl fusion protein it was < 5.00.

In test [1], `N#C/C(=C\c1ccc(O)c(O)c1)C(=O)c1ccc(O)c(O)c1` showed a pIC50 of 7.21.

For the compound `N#C/C(=C\c1ccc(O)c(O)c1)C(=O)NCc1ccccc1`, the Selectivity ratio in [15] amounted to 100.

In the case of `Nc1ncnc2c1c(-c1cccc(OCc3ccccc3)c1)cn2[C@H]1C[C@H](N2CCCC2)C1`, the negative-log IC50 (pIC50) in test [16] is 6.77; in test [14], < 5.30; against Insulin receptor [17], 5.55; in test [18] it was < 5.00; in test [19], < 5.00; on Bcr/Abl fusion protein it was < 5.00. In addition, the negative logarithm of the IC50 (pIC50) in test [20] was < 5.00.

With `Nc1nccn2cnc(-c3ccc4ccc(-c5ccccc5)nc4c3C3CC(N4CC4)C3)c12` (configuration not stated), the negative-log IC50 (pIC50) in [1] was 7.70. Also, the Selectivity ratio in test [21] is 5.

`CN1CCN(c2ccc(C(=O)Nc3n[nH]c4c3CN(S(=O)(=O)c3cc(F)cc(F)c3)C4(C)C)cc2NC(=O)c2cc[nH]c2)CC1`: the pIC50 was 7.05 in test [22] and 6.52 in [23].

With `Cc1cc(N2CCOCC2)cc2[nH]c(-c3c(NC[C@@H](O)c4cccc(Cl)c4)cc[nH]c3=O)nc12`, the values for the negative-log IC50 (pIC50) in test [10] and in test [12] were 6.69 and 6.71, respectively.

By pIC50 is commonly meant the negative decadic logarithm of the IC50, by convention in mol/L.

The values above are taken from ChEMBL document CHEMBL1152979, “Inhibition of the insulin-like growth factor-1 receptor (IGF1R) tyrosine kinase as a novel cancer therapy approach” (J Med Chem, 2009).
